Experiments:
ECHCG (Barnyardgrass) [1] = test: Preemergence herbicidal evaluation; format: in vivo, Echinochloa crus-galli; conditions: preemergence, rated 4-5 weeks after treatment, 0-9 scale
Summary of the method: (§1)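 Seeds were mixed with potting soil and planted on about one inch of soil, then sprayed with test compound in aqueous acetone at about 0.0156 to 0.500 kg per hectare. Plants grew under standard greenhouse care and were visually rated 0-9 against untreated controls 4-5 weeks post-treatment.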

AMBEL (Ragweed, Common) = test: Postemergence herbicidal evaluation; format: in vivo, Ambrosia artemisifolia; conditions: postemergence
Summary of the method: (§2)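 Compound is applied as a foliar spray to seedlings about two weeks old, formulated in equal parts acetone and water with 0.5% TWEEN 20 and delivered at 40 psi to give about 0.0156–0.500 kg per hectare. Injury is rated visually 0–9 after four to five weeks.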

[2] = tested on: ECHORC (Watergrass (Calif.)); test: Postemergence weed control under flooded paddy conditions; format: in vivo, Echinochloa oryzoides; conditions: postemergence weeds, rated 3 to 4 weeks after treatment
Summary of the method: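 Containers holding 3–5 cm weeds and rice at 1.5–2.5 leaves are flooded to 1.5–3 cm above soil. Compound in 50/50 v/v aqueous/acetone is then added directly to the water, about 0.0313–0.500 kg/ha. Plants are kept in the greenhouse and rated 0–9 visually at 3–4 weeks.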

SETVI (Foxtail, Green) = test: Postemergence herbicidal evaluation; format: in vivo, Setaria viridis; conditions: postemergence
Summary of the method: as §2

ZEAMX (Corn, Field) = test: Preemergence herbicidal evaluation; format: in vivo, Zea mays; conditions: preemergence, rated 4-5 weeks after treatment, 0-9 scale
Summary of the method: as §1

GALAP (Galium) = test: Preemergence herbicidal evaluation; format: in vivo, Galium aparine; conditions: preemergence, rated 4-5 weeks after treatment, 0-9 scale
Summary of the method: as §1

[3] = tested on: IPOHE (Morningglory, Ivyleaf); test: Postemergence herbicidal evaluation; format: in vivo, Ipomoea hederacea; conditions: postemergence
Summary of the method: as §2

ECHCG (Barnyardgrass) [4] = test: Postemergence herbicidal evaluation; format: in vivo, Echinochloa crus-galli; conditions: postemergence
Summary of the method: as §2

[5] = tested on: IPOHE (Morningglory, Ivyleaf); test: Preemergence herbicidal evaluation; format: in vivo, Ipomoea hederacea; conditions: preemergence, rated 4-5 weeks after treatment, 0-9 scale
Summary of the method: as §1

[6] = tested on: TRZAWR (Wheat, Winter, cv Riband); test: Postemergence herbicidal evaluation; format: in vivo, Triticum aestivum; conditions: postemergence
Summary of the method: as §2

[7] = tested on: GLXMAW (Soybean, Williams); test: Postemergence herbicidal evaluation; format: in vivo, Glycine max, (L.) Merr. cv Williams; conditions: postemergence
Summary of the method: as §2

[8] = tested on: CHEAL (Lambsquarters, Common); test: Preemergence herbicidal evaluation; format: in vivo, Chenopodium album; conditions: preemergence, rated 4-5 weeks after treatment, 0-9 scale
Summary of the method: as §1

CASOB (Sicklepod) = test: Preemergence herbicidal evaluation; format: in vivo, Cassia obtusifolia; conditions: preemergence, rated 4-5 weeks after treatment, 0-9 scale
Summary of the method: as §1

ABUTH (Velvetleaf) = test: Postemergence herbicidal evaluation; format: in vivo, Abutilon theophrasti; conditions: postemergence
Summary of the method: as §2

C#CCOC(=O)CC1SC(=Nc2cc(-n3c(=O)cc(C(F)(F)F)n(C)c3=O)c(F)cc2Cl)N(C)C1=O (stereo not shown) [Compound 90, 2-Propynyl 2-{{2-chloro-5-[3,6-dihydro-3-methyl-2,6-dioxo-4-(trifluoromethyl)-1(2H)-pyrimidinyl]-4-fluorophenyl}imino}-3-methyl-4-oxo-5-thiazolidineacetate]
ECHCG rating (ECHCG (Barnyardgrass) [1]; 0.0313 kg/ha): 0.0 | ECHCG rating (ECHCG (Barnyardgrass) [1]; 0.0625 kg/ha): 0.0 | ECHCG rating (ECHCG (Barnyardgrass) [1]; 0.1250 kg/ha): 0.0 | ECHCG rating (ECHCG (Barnyardgrass) [1]; 0.2500 kg/ha): 3.0 | AMBEL herbicidal rating (AMBEL (Ragweed, Common); rate 0.0158 kg/ha): 9.0 | AMBEL herbicidal rating (AMBEL (Ragweed, Common); rate 0.0315 kg/ha): 9.0 | AMBEL herbicidal rating (AMBEL (Ragweed, Common); rate 0.0630 kg/ha): 9.0 | Herbicidal rating ECHORC ([2]; Rate 0.0313 kg/ha): 0.0 | Herbicidal rating ECHORC ([2]; Rate 0.0625 kg/ha): 0.0 | Herbicidal rating ECHORC ([2]; Rate 0.1250 kg/ha): 0.0 | Herbicidal rating ECHORC ([2]; Rate 0.2500 kg/ha): 3.0 | SETVI herbicidal rating (SETVI (Foxtail, Green); rate 0.0158 kg/ha): 9.0 | SETVI herbicidal rating (SETVI (Foxtail, Green); rate 0.0315 kg/ha): 9.0 | SETVI herbicidal rating (SETVI (Foxtail, Green); rate 0.0630 kg/ha): 9.0 | ZEAMX rating (ZEAMX (Corn, Field); 0.0313 kg/ha): 0.0 | ZEAMX rating (ZEAMX (Corn, Field); 0.0625 kg/ha): 0.0 | ZEAMX rating (ZEAMX (Corn, Field); 0.1250 kg/ha): 7.0 | ZEAMX rating (ZEAMX (Corn, Field); 0.2500 kg/ha): 8.0 | GALAP rating (GALAP (Galium); 0.0313 kg/ha): 0.0 | GALAP rating (GALAP (Galium); 0.0625 kg/ha): 0.0 | GALAP rating (GALAP (Galium); 0.1250 kg/ha): 3.0 | GALAP rating (GALAP (Galium); 0.2500 kg/ha): 7.0 | IPOHE herbicidal rating ([3]; rate 0.0158 kg/ha): 9.0 | IPOHE herbicidal rating ([3]; rate 0.0315 kg/ha): 9.0 | IPOHE herbicidal rating ([3]; rate 0.0630 kg/ha): 9.0 | ECHCG herbicidal rating (ECHCG (Barnyardgrass) [4]; rate 0.0158 kg/ha): 3.0 | ECHCG herbicidal rating (ECHCG (Barnyardgrass) [4]; rate 0.0315 kg/ha): 5.0 | ECHCG herbicidal rating (ECHCG (Barnyardgrass) [4]; rate 0.0630 kg/ha): 9.0 | IPOHE rating ([5]; 0.0313 kg/ha): 1.0 | IPOHE rating ([5]; 0.0625 kg/ha): 4.0 | IPOHE rating ([5]; 0.1250 kg/ha): 9.0 | IPOHE rating ([5]; 0.2500 kg/ha): 9.0 | TRZAWR herbicidal rating ([6]; rate 0.0158 kg/ha): 5.5 | TRZAWR herbicidal rating ([6]; rate 0.0315 kg/ha): 7.0 | TRZAWR herbicidal rating ([6]; rate 0.0630 kg/ha): 7.5 | GLXMAW herbicidal rating ([7]; rate 0.0158 kg/ha): 9.0 | GLXMAW herbicidal rating ([7]; rate 0.0315 kg/ha): 9.0 | GLXMAW herbicidal rating ([7]; rate 0.0630 kg/ha): 9.0 | CHEAL rating ([8]; 0.0313 kg/ha): 7.0 | CHEAL rating ([8]; 0.0625 kg/ha): 9.0 | CHEAL rating ([8]; 0.1250 kg/ha): 9.0 | CHEAL rating ([8]; 0.2500 kg/ha): 9.0 | CASOB rating (CASOB (Sicklepod); 0.0313 kg/ha): 3.0 | CASOB rating (CASOB (Sicklepod); 0.0625 kg/ha): 9.0 | CASOB rating (CASOB (Sicklepod); 0.1250 kg/ha): 9.0 | CASOB rating (CASOB (Sicklepod); 0.2500 kg/ha): 9.0 | ABUTH herbicidal rating (ABUTH (Velvetleaf); rate 0.0158 kg/ha): 9.0 | ABUTH herbicidal rating (ABUTH (Velvetleaf); rate 0.0315 kg/ha): 9.0 | ABUTH herbicidal rating (ABUTH (Velvetleaf); rate 0.0630 kg/ha): 9.0
